This is an account of results in patent EP4722217A1, “PYRIMIDO-PYRIDINE COMPOUND, PHARMACEUTICAL COMPOSITION THEREOF AND USE THEREOF” (Sunshine Lake Pharma Co., Ltd., priority 2023, dated 2025).

What all share (format): cell-based
For one assay, the system named is GP2D. Nature of the assay: 3D-CTG proliferation inhibition of GP2D cells. As to conditions: cell proliferation, read after the 8th day of incubation, read-out: GP2D, IC50 (nM) KRAS G12D. How it is done:
(§1) • (1) GP2D and HPAC cells were revived in DMEM medium containing 10% fetal bovine serum and used for experiments after the cells were recovered. • (2) On the first day, the cells were rinsed once with PBS, preheated trypsin was added, and the cells were placed in a 37 °C 5% CO2 incubator for 3-5 minutes. The digestion was terminated by adding an appropriate amount of complete culture medium (containing 10% fetal bovine serum), and the cells were transferred to a centrifuge tube and centrifuged at 1000 rpm for 5 minutes. • (3) The cells were resuspended in complete culture medium, counted, and adjusted to the appropriate cell concentration with complete culture medium. • (4) Using the ECHO 655 ultrasonic liquid handling system, 0.2 µl of the prepared 200× serial dilution compound (final DMSO concentration of 0.5%) was added to a 384-well plate. 40 µl of the cell suspension counted in step (3) was then added to each well and the plate was incubated in a 5% CO2 incubator at 37 °C. • (6) After the 8th day of incubation, 3D CTG detection reagent was added to each well. • (7) Signal values were read using Envision. • (8) Data analysis: • a) DMSO and culture medium were used to test the stability of the experimental method: • H = DMSO well • L = Culture medium well H, CV% (DMSOwell) = 100 × (SDvalueofDMSOwell/averagevalueofDMSOwell) [formula] L, CV% (correspondingculturemediumwell) = 100 × (SDvalueofculturemediumwell/average [formula] value of corresponding culture medium well) [formula] [formula] • b) IC50 values were fitted using the nonlinear regression equation in XLfit 5.5.0 software. Y = Bottom + (Top−Bottom)/(1+10^(∧)((LogIC50−X)*HillSlope)) [formula] • X: Log value of compound concentration • Y: Inhibition rate (% inh)

Assay [1] deals with pERK in KRAS G12D mutant cell line AGS. Nature of the assay: Inhibitory effect on intracellular pERK by In-Cell Western Assay (384-well). The following applies: Homo sapiens; pERK inhibition, AGS cells, 3 h incubation; read-out: AGS, IC50 (nM) KRAS p.G12D. The procedure:
(7) The cells were fixed. (8) The cells were washed twice with PBS. (9) The blocking solution was added and the cells were incubated at room temperature for 1 h. […] (11) The cells were washed twice with PBST (PBS + 0.05% Tween 20) for 2 minutes each time.

For a further assay, the system named is HPAC. Nature of the assay: 3D-CTG proliferation inhibition of HPAC cells. The following applies: Homo sapiens, read-out: IC50 (nM) KRAS G12D, Table D-2, titled HPAC, cell proliferation, read after the 8th day of incubation, read-out: GP2D, IC50 (nM) KRAS G12D. The procedure:
as §1, with “L, CV% (correspondingculturemediumwell) = 100 × (SDvalueofculturemediumwell/average [formula] value of corresponding culture medium well) [formula] [formula] • b) IC50 values were fitted using the nonlinear regression equation in XLfit 5.5.0 software. Y = Bottom + (Top−Bottom)/(1+10^(∧)((LogIC50−X)*HillSlope)) [formula] • X: Log value of compound concentration • Y: Inhibition rate (% inh)” left out

In another assay the test system is Panc04.03. Kind of assay: 3D-CTG proliferation inhibition of KRAS G12D mutant cells. The following applies: Homo sapiens, Panc 04.03, cell proliferation, read after the 7th day of incubation. The procedure: (§2) (1) On the first day, the following cells were revived with the corresponding culture medium and incubated in a 5% CO2 incubator at 37 °C until confluence:
(§3) (2) On the second day, the cells were rinsed once with PBS, preheated trypsin was added, and the cells were placed in a 37 °C 5% CO2 incubator for digestion for 3~5 minutes. The digestion was terminated by adding an appropriate amount of complete culture medium (containing 10% fetal bovine serum), and the cells were transferred to a centrifuge tube and centrifuged at 1000 rpm for 5 minutes. (3) The cells were resuspended in complete culture medium, counted, and adjusted to the appropriate cell concentration with complete culture medium. (4) 90 µl/well of cell suspension was added to a 96-well plate and incubated in a 5% CO2 incubator at 37 °C overnight. (5) Each well was added with 10 µl of the prepared 10× serial dilution compound (final DMSO concentration was 0.5%) and incubated in a 37°C 5% CO2 incubator. (6) After the 7th day of incubation, 50 µl of 3D CTG detection reagent was added to each well and the cells were shaken at 350 rpm for 20 minutes. (7) Signal values were read using an enzyme meter. (8) Data analysis: IC50 values were fitted using the nonlinear regression equation in Graphpad software. […]

For a further assay, the system named is ASPC-1. The description is as above. As to conditions: Homo sapiens, ASPC1, cell proliferation, read after the 7th day of incubation. How it is done: as §2, §3
For assay [2], the system named is pERK in KRAS G12D mutant cell line ASPC-1. Nature of the assay: Inhibitory effect on intracellular pERK by In-Cell Western Assay (96-well). As to conditions: Homo sapiens, ASPC1; pERK inhibition, ASPC-1 cells, 2 h incubation; read-out: ASPC-1, IC50 (nM) KRAS p.G12D. The procedure:
(2) On the first day, the following cells were revived with the corresponding culture medium and incubated in a 5% CO2 incubator at 37 °C until confluence:
(2) On the third day, the culture medium was removed, 2 mL of trypsin was added for digestion, and the cells were placed in an incubator until the cells detached. (3) 5 mL of fresh culture medium was added to resuspend the cells to terminate the digestion, and the cells were gently pipetted and centrifuged at 1000 rpm for 5 minutes at room temperature. (4) The supernatant was removed, and 5 mL of new culture medium was added to resuspend the cells and count them. (5) The cells were adjusted to the appropriate cell concentration with complete culture medium and plated in a 96-well plate. 90 µL of cells were added to each well, the cells were incubated in a 5% CO2 incubator at 37 °C overnight. (6) 10 µL of the prepared serial dilution compound (DMSO final concentration was 0.5%) was added and the cells were incubated in a 5% CO2 incubator at 37 °C for 2 h. (7) The supernatant was discarded, and 200 µL of 4% paraformaldehyde fixative was added to fix the cells. (8) The cells were washed three times with TBST. (9) The blocking solution was added and the cells were incubated at room temperature for 1 h. […]

Structures are written as SMILES.

Regarding `C#Cc1c(F)ccc2cc(O)cc(-c3nc(C#C)c4c(N5CC6CCC(C5)N6)nc(OCC56CC(=C)CN5CC(=C)C6)nc4c3F)c12` [Example 6], the IC50 in the assay with GP2D came out at 1.6 nM.

For the molecule `C=C1CN2CC(=C)CC2(COc2nc(N3CC4CCC(C3)N4)c3c(C#CC)nc(-c4cc(O)cc5ccc(F)c(CC)c45)c(F)c3n2)C1` [Example 9], the IC50 in the assay with GP2D stood at 0.19 nM.

For the molecule `C#Cc1c(F)ccc2cc(O)cc(-c3nc(C#CC)c4c(N5CC6CCC(C5)N6)nc(OCC56CCCN5CC(=CF)C6)nc4c3F)c12` (centres unmarked) [Example 11], the IC50 in the assay on GP2D amounted to 0.03 nM.

Turning to `C#Cc1c(F)ccc2cc(O)cc(-c3nc(C#CC)c4c(N5CC6CCC(C5)N6)nc(OCC56CC(=C)CN5CC(=C)C6)nc4c3F)c12` [Example 2], the IC50 came out at 0.4 nM in assay [1]; 0.77 nM in the assay on HPAC; 0.85 nM in the assay on Panc04.03; 0.42 nM with ASPC-1; 0.86 nM in assay [2]; 0.17 nM in the assay with GP2D.

Regarding `C#Cc1c(F)ccc2cc(O)cc(-c3nc(C#CC)c4c(N5CC6CCC(C5)N6)nc(OCC56CCCN5CC(=C)C6)nc4c3F)c12` (centres unmarked) [Example 5], the IC50 with GP2D turned out to be 0.07 nM.

On to `C=C1CN2CC(=C)CC2(COc2nc(N3CC4CCC(C3)N4)c3c(C#CC)nc(-c4cc(N)cc(Cl)c4C(F)(F)F)c(F)c3n2)C1` [Example 10], for which the IC50 in the assay on GP2D was 12.4 nM.
